{
  "source": "patent US8759051B2",
  "about": "“Control of contaminant microorganisms in fermentation processes with peroxygen-releasing compounds” (E I du Pont de Nemours and Company, priority 2010, dated 2014)",
  "key": {"[1]": {"test_system": "lactic acid bacteria (LAB)", "assay": "Inactivation of LAB in dilute molasses at pH 5.0 in the presence of yeast Ethanol Red (Example 5)", "type": "cell-based", "settings": "for Log CFU/mL of LAB at hour indicated: 32° C.", "method": "Cultures of lactic acid bacteria (LAB) were prepared as in Example 1 above. Molasses was diluted 1:3.1 with water as in previous examples. The fermenting yeast Ethanol Red was cultured as in example 1. Populations of lactic acid bacteria and yeasts were determined by dilution plating on MRS agar and YPD agar, respectively. Overnight cultures of LAB were mixed to prepare a bacterial cocktail and inoculated into molasses (diluted 1:3.1 with water) adjusted to pH 5.0 to give approximately 6.11 Log CFU/ml. Cultures of yeasts were added to each tube at a concentration of approximately 6.80 Log CFU/ml. […] The amount of UHP added was 1450 ppm. The amount of percarbonate added was 1812 ppm. Tubes were then incubated at 32° C. with agitation. […] Amphotericin inhibits the growth of yeast, facilitating enumeration of bacteria only."}, "[2]": {"assay": "Stability of peroxygen-releasing compounds during storage at 40° C., iodometric titration of hydrogen peroxide (Example 4)", "type": "physicochemical", "method": "A dry oven was used to store samples of the peroxygen-releasing compounds at 40° C. The oven was allowed to equilibrate overnight. Two-gram duplicate samples of each of the following peroxygen-releasing compounds were dispensed into aluminum weighing dishes: sodium percarbonate (Alfa Aesar, Ward Hill, Mass.), sodium percarbonate FB 400 (Solvay Chemicals, Inc., Houston, Tex.), sodium percarbonate FB […] (Solvay Chemicals, Inc.), calcium peroxide (Sigma-Aldrich Co., St. […] After six days, samples were analyzed for levels of hydrogen peroxide using standard iodometric titration."}, "[3]": {"test_system": "lactic acid bacteria (LAB)", "assay": "Susceptibility of lactic acid bacteria cocktail to sodium percarbonate in diluted molasses (Example 1)", "type": "cell-based", "settings": "for LAB level after treatment: approx. 2 hours, 32° C., molasses", "method": "In this example, the susceptibility of yeast and lactic acid bacteria to sodium percarbonate was determined in molasses. Molasses was prepared by diluting molasses (B&G Foods, Inc., Roseland, N.J.) 1 part to 3.1 parts water to mimic conditions used for ethanol production based on a molasses feedstock (common in Latin America and Asia). The diluted molasses was autoclaved at 121° C. for 15 minutes to sterilize prior to use in the experiment. Cultures of lactic acid bacteria (LAB) (Lactobacillus plantarum, Lactobacillus brevis, Lactobacillus fermentum, and Lactobacillus paracasei) were prepared by inoculating MRS broth (available from Difco Laboratories Inc., Sparks, Md.) and incubating overnight at 32° C. with agitation. The bacteria were selected because they had previously been isolated from contaminated ethanol fermentation processes. Cultures of each organism were combined to create a bacterial cocktail and diluted in molasses to give 1.0×10^7, 1.0×10^6, and 1.0×10^5 bacteria/ml, or commonly expressed as colony forming units per milliliter or CFU/ml). Sodium percarbonate (Alfa Aesar, Ward Hill, Mass.) was prepared as a 2% solution immediately prior to use. Percarbonate was added to tubes containing 25 ml of inoculated molasses to give concentrations of 0, 100, 250, 500 and 1000 ppm. Tubes were incubated at 32° C. with agitation. After approximately 2 hours, bacterial levels present in each tube were enumerated by plating decimal dilutions of molasses onto the surface of MRS agar plates (Difco Laboratories Inc., Sparks, Md.). Plates were incubated overnight at 32° C."}, "SuperStart": {"test_system": "SuperStart", "assay": "Susceptibility of fermenting yeast to sodium percarbonate in diluted molasses (Example 1, second part)", "type": "cell-based", "settings": "for yeast level after treatment: two hours, molasses", "method": "(§1) In a second part of this Example 1, the yeasts strains Ethanol Red, FermPro S, and SuperStart (commonly used as fermenting yeasts in the ethanol industry) were cultured overnight in Yeast Peptone Dextrose broth (YPD, Difco Laboratories Inc., Sparks, Md.). Individual strains were then suspended in dilute molasses as above to give approximately 1×10^6 CFU/ml and treated with various concentration of percarbonate for two hours as described above."}, "Ethanol Red": {"test_system": "Ethanol Red", "assay": "Susceptibility of fermenting yeast to sodium percarbonate in diluted molasses (Example 1, second part)", "type": "cell-based", "settings": "for yeast level after treatment: two hours, molasses", "method": "as §1"}, "FermPro S": {"test_system": "FermPro S", "assay": "Susceptibility of fermenting yeast to sodium percarbonate in diluted molasses (Example 1, second part)", "type": "cell-based", "settings": "for yeast level after treatment: two hours, molasses", "method": "as §1"}, "[4]": {"settings": "1.0×10^6 CFU/ml, 500 ppm percarbonate"}},
  "note": "Values joined by “and” are separate entries in the source; they are usually repeats but may differ in a detail not shown here. Equal values may be shown once.",
  "data": [
    {"smiles": "O=C([O-])[O-].O=C([O-])[O-].OO.OO.OO.[Na+].[Na+].[Na+].[Na+]", "note": "[Sodium percarbonate, sodium percarbonate]", "values": [
      {"measurement": "reduction of the population of LAB", "setting": "[1]; 500 ppm as H2O2, 2 hours of incubation at 32° C., in presence of yeast", "value": "~5", "unit": "log units"},
      {"measurement": "Log CFU/mL of LAB at hour indicated", "setting": "[1]; 500 ppm as H2O2, hour 2, molasses pH 5.0, yeast approx. 6.80 Log CFU/ml", "value": 1.95, "unit": "Log CFU/mL"},
      {"measurement": "Log CFU/mL of LAB at hour indicated", "setting": "[1]; 500 ppm as H2O2, hour 6, molasses pH 5.0, yeast approx. 6.80 Log CFU/ml, listed as percarbonate", "value": "<1", "unit": "Log CFU/mL"},
      {"measurement": "Log CFU/mL of LAB at hour indicated", "setting": "[1]; 500 ppm as H2O2, hour 6, molasses pH 5.0, yeast approx. 6.80 Log CFU/ml, listed as sodium percarbonate", "value": "below the detectable limit"},
      {"measurement": "% Remaining H2O2 Day 0", "setting": "[2]", "value": 100, "unit": "%"},
      {"measurement": "% Remaining H2O2 Day 6", "setting": "[2]", "value": 99, "unit": "%"},
      {"measurement": "% Remaining H2O2 Day 14", "setting": "[2]", "value": 99, "unit": "%"},
      {"measurement": "% H2O2 Day 0", "setting": "[2]; before storage, duplicate samples, listed as Sodium percarbonate (Alfa Aesar)", "value": "27.48% and 27.38%"},
      {"measurement": "% H2O2 Day 6", "setting": "[2]; storage at 40° C. in dry oven, day 6, duplicate samples, listed as Sodium percarbonate (Alfa Aesar)", "value": "27.12% and 27.05%"},
      {"measurement": "% H2O2 Day 14", "setting": "[2]; storage at 40° C. in dry oven, day 14, duplicate samples, listed as Sodium percarbonate (Alfa Aesar)", "value": "27.11% and 26.99%"},
      {"measurement": "log reductions of LAB", "setting": "[3]; 1000 ppm percarbonate", "value": "> 6", "unit": "log"},
      {"measurement": "LAB level (below detectable limit of the assay)", "setting": "[3]; 1000 ppm percarbonate, all of the tested levels of LAB", "value": "< 10", "unit": "CFU/ml"},
      {"measurement": "reduction in the level of bacteria", "setting": "[3]; initial LAB 1.0×10^6 or 1.0×10^7 CFU/ml, 500 ppm percarbonate", "value": 2, "unit": "log"},
      {"measurement": "LAB level after treatment", "setting": "[3]; inoculum 1.0 × 10^5 CFU/ml, 100 ppm percarbonate", "value": "8.90 × 10^4 CFU/ml"},
      {"measurement": "LAB level after treatment", "setting": "[3]; inoculum 1.0 × 10^5 CFU/ml, 250 ppm percarbonate", "value": "1.80 × 10^3 CFU/ml"},
      {"measurement": "LAB level after treatment", "setting": "[3]; inoculum 1.0 × 10^5 CFU/ml, 500 ppm percarbonate", "value": "1.70 × 10^2 CFU/ml"},
      {"measurement": "LAB level after treatment", "setting": "[3]; inoculum 1.0 × 10^5 CFU/ml, 1000 ppm percarbonate", "value": "<10", "unit": "CFU/ml"},
      {"measurement": "LAB level after treatment", "setting": "[3]; inoculum 1.0 × 10^6 CFU/ml, 100 ppm percarbonate", "value": "8.50 × 10^5 CFU/ml"},
      {"measurement": "LAB level after treatment", "setting": "[3]; inoculum 1.0 × 10^6 CFU/ml, 250 ppm percarbonate", "value": "1.55 × 10^5 CFU/ml"},
      {"measurement": "LAB level after treatment", "setting": "[3]; inoculum 1.0 × 10^6 CFU/ml, 500 ppm percarbonate", "value": "1.17 × 10^4 CFU/ml"},
      {"measurement": "LAB level after treatment", "setting": "[3]; inoculum 1.0 × 10^6 CFU/ml, 1000 ppm percarbonate", "value": "<10", "unit": "CFU/ml"},
      {"measurement": "LAB level after treatment", "setting": "[3]; inoculum 1.0 × 10^7 CFU/ml, 100 ppm percarbonate", "value": "6.90 × 10^6 CFU/ml"},
      {"measurement": "LAB level after treatment", "setting": "[3]; inoculum 1.0 × 10^7 CFU/ml, 250 ppm percarbonate", "value": "1.68 × 10^6 CFU/ml"},
      {"measurement": "LAB level after treatment", "setting": "[3]; inoculum 1.0 × 10^7 CFU/ml, 500 ppm percarbonate", "value": "1.20 × 10^5 CFU/ml"},
      {"measurement": "LAB level after treatment", "setting": "[3]; inoculum 1.0 × 10^7 CFU/ml, 1000 ppm percarbonate", "value": "<10", "unit": "CFU/ml"},
      {"measurement": "reduction in the level of bacteria", "setting": "[3]; starting LAB 1.0×10^5 CFU/ml, 500 ppm percarbonate, two hours", "value": "~3", "unit": "log"},
      {"measurement": "reduction in the concentration of yeast", "setting": "SuperStart; [4]", "value": "approximately 1 log"},
      {"measurement": "yeast level after treatment", "setting": "SuperStart; 100 ppm percarbonate", "value": "1.22 × 10^6 CFU/ml"},
      {"measurement": "yeast level after treatment", "setting": "SuperStart; 250 ppm percarbonate", "value": "3.80 × 10^5 CFU/ml"},
      {"measurement": "yeast level after treatment", "setting": "SuperStart; 500 ppm percarbonate", "value": "1.07 × 10^5 CFU/ml"},
      {"measurement": "yeast level after treatment", "setting": "SuperStart; 1000 ppm percarbonate", "value": "6.00 × 10^3 CFU/ml"},
      {"measurement": "reduction of yeast", "setting": "Ethanol Red; [4]", "value": "< 1", "unit": "log"},
      {"measurement": "yeast level after treatment", "setting": "Ethanol Red; 100 ppm percarbonate", "value": "7.90 × 10^6 CFU/ml"},
      {"measurement": "yeast level after treatment", "setting": "Ethanol Red; 250 ppm percarbonate", "value": "5.00 × 10^6 CFU/ml"},
      {"measurement": "yeast level after treatment", "setting": "Ethanol Red; 500 ppm percarbonate", "value": "1.99 × 10^6 CFU/ml"},
      {"measurement": "reduction of yeast", "setting": "Ethanol Red; 1000 ppm percarbonate", "value": "approximately 1 log"},
      {"measurement": "yeast level after treatment", "setting": "Ethanol Red; 1000 ppm percarbonate", "value": "4.90 × 10^5 CFU/ml"},
      {"measurement": "reduction of yeast", "setting": "FermPro S; [4]", "value": "< 1", "unit": "log"},
      {"measurement": "yeast level after treatment", "setting": "FermPro S; 100 ppm percarbonate", "value": "7.30 × 10^6 CFU/ml"},
      {"measurement": "yeast level after treatment", "setting": "FermPro S; 250 ppm percarbonate", "value": "3.00 × 10^6 CFU/ml"},
      {"measurement": "yeast level after treatment", "setting": "FermPro S; 500 ppm percarbonate", "value": "1.43 × 10^6 CFU/ml"},
      {"measurement": "reduction of yeast", "setting": "FermPro S; 1000 ppm percarbonate", "value": "approximately 1 log"},
      {"measurement": "yeast level after treatment", "setting": "FermPro S; 1000 ppm percarbonate", "value": "2.90 × 10^5 CFU/ml"}
    ]}
  ]
}
